Laboratory results taken from PubChem BioAssay AID1259407 (Chemical Carcinogenesis Research Information System (CCRIS), 2018).
Activity calls are given as the source filed them. How the calls were made is not given here.

Test system: CCRIS mutagenicity, Ames/micronucleus/aberration tests
Test: CCRIS mutagenicity studies
[1] = Test System: AMES SALMONELLA TYPHIMURIUM, Strain/Indicator: TA98, Metabolic Activation: NONE, Method: STANDARD PLATE
[2] = Test System: AMES SALMONELLA TYPHIMURIUM, Strain/Indicator: TA98, Metabolic Activation: RAT, LIVER, S-9, AROCLOR 1254, Method: STANDARD PLATE
[3] = Test System: AMES SALMONELLA TYPHIMURIUM, Strain/Indicator: TA100, Metabolic Activation: RAT, LIVER, S-9, AROCLOR 1254, Method: STANDARD PLATE
[4] = Test System: AMES SALMONELLA TYPHIMURIUM, Strain/Indicator: TA1535, Metabolic Activation: NONE, Method: STANDARD PLATE
[5] = Test System: AMES SALMONELLA TYPHIMURIUM, Strain/Indicator: TA1535, Metabolic Activation: RAT, LIVER, S-9, AROCLOR 1254, Method: STANDARD PLATE
[6] = Test System: AMES SALMONELLA TYPHIMURIUM, Strain/Indicator: TA1537, Metabolic Activation: NONE, Method: STANDARD PLATE
[7] = Test System: AMES SALMONELLA TYPHIMURIUM, Strain/Indicator: TA1537, Metabolic Activation: RAT, LIVER, S-9, AROCLOR 1254, Method: STANDARD PLATE
[8] = Test System: AMES SALMONELLA TYPHIMURIUM, Strain/Indicator: TA1538, Metabolic Activation: NONE, Method: STANDARD PLATE
[9] = Test System: AMES SALMONELLA TYPHIMURIUM, Strain/Indicator: TA1978, Metabolic Activation: NONE, Method: STANDARD PLATE
[10] = Test System: AMES SALMONELLA TYPHIMURIUM, Strain/Indicator: TA100, Metabolic Activation: RAT, LIVER, S-9, AROCLOR 1254, Method: PREINCUBATION
[11] = Test System: AMES SALMONELLA TYPHIMURIUM, Strain/Indicator: TA100, Metabolic Activation: NONE, Method: STANDARD PLATE

With O=C1c2cccc(O)c2C(=O)c2cccc(O)c21 the mutagenic call [1] was “active; positive”, the mutagenic call [2] was “active; positive” and the mutagenic call [3] was “inactive; negative”. For the same compound, the mutagenic call [4] was “inactive; negative”, the mutagenic call [5] was “inactive; negative” and the mutagenic call [6] was “active; positive”. The mutagenic call [7] was “active; positive”, the mutagenic call (Test System: AMES SALMONELLA TYPHIMURIUM, Strain/Indicator: TA1537, Metabolic Activation: RAT, LIVER, S-9, Method: PREINCUBATION) was “active; positive” and the mutagenic call [8] was “active; positive”. The mutagenic call [9] was “inactive; negative”, the mutagenic call (Test System: AMES SALMONELLA TYPHIMURIUM, Strain/Indicator: TA1978, Metabolic Activation: RAT, LIVER, S-9, AROCLOR 1254, Method: STANDARD PLATE) was “inactive; negative” and the mutagenic call (Test System: AMES SALMONELLA TYPHIMURIUM, Strain/Indicator: TA2637, Metabolic Activation: RAT, LIVER, S-9, 5,6-BENZOFLAVONE AND/OR SODIUM PHENOBARBITAL, Method: PREINCUBATION) was “active; positive”. The mutagenic call (Test System: AMES SALMONELLA TYPHIMURIUM, Strain/Indicator: TA2637, Metabolic Activation: RAT, LIVER, S-105, 5,6-BENZOFLAVONE AND/OR SODIUM PHENOBARBITAL, Method: PREINCUBATION) was “inactive; negative”.
Cc1cc2c(O)cccc2c2cc3c(cc12)C=C[C@H](O)[C@H]3O was tested, and the mutagenic call [10] was “active; positive”.
For O=Cc1ccc(C(=O)ON(OCc2ccccc2)C(=O)c2ccccc2)cc1, the mutagenic call [11] was “active; positive” and the mutagenic call (Test System: AMES SALMONELLA TYPHIMURIUM, Strain/Indicator: TA100, Metabolic Activation: RAT, S-9, AROCLOR, Method: STANDARD PLATE) was “active; positive”.
With CCCC(Cl)C(=O)S (configuration not stated) the mutagenic call (Test System: AMES SALMONELLA TYPHIMURIUM, Strain/Indicator: TA1535, Metabolic Activation: NONE) was “active; positive”.
For OC1CC=Cc2cccnc21 (configuration not stated), the mutagenic call [11] was “inactive; negative” and the mutagenic call (Test System: AMES SALMONELLA TYPHIMURIUM, Strain/Indicator: TA100, Metabolic Activation: RAT, LIVER, S-9, AROCLOR 1254 (10 OR 20%), Method: STANDARD PLATE) was “inactive; negative”.
For CC(N)=S, the mutagenic call (Test System: AMES SALMONELLA TYPHIMURIUM, Strain/Indicator: TA102, Metabolic Activation: RAT LIVER S-9, PHENOBARBITAL AND 5,6-BENZOFLAVONE, Method: STANDARD PLATE) was “inactive; negative”, the mutagenic call (Test System: AMES SALMONELLA TYPHIMURIUM, Strain/Indicator: TA2638, Metabolic Activation: RAT LIVER S-9, PHENOBARBITAL AND 5,6-BENZOFLAVONE, Method: STANDARD PLATE) was “inactive; negative” and the mutagenic call (Test System: E. COLI, Strain/Indicator: WP2 (PKM101), Metabolic Activation: RAT LIVER S-9, PHENOBARBITAL AND 5,6-BENZOFLAVONE, Method: STANDARD PLATE) was “inactive; negative”. The mutagenic call (Test System: E. COLI, Strain/Indicator: WP2 UVRA (PKM101), Metabolic Activation: RAT LIVER S-9, PHENOBARBITAL AND 5,6-BENZOFLAVONE, Method: STANDARD PLATE) was “inactive; negative”, the mutagenic call (Test System: E. COLI, Strain/Indicator: WP2 UVRA, Metabolic Activation: HAMSTER, LIVER, S-9, AROCLOR 1254, Method: STANDARD PLATE) was “inactive; negative” and the mutagenic call (Test System: E. COLI, Strain/Indicator: WP2 UVRA, Metabolic Activation: HAMSTER, LIVER, S-9, Method: STANDARD PLATE) was “inactive; negative”. For the same compound, the mutagenic call (Test System: E. COLI, Strain/Indicator: WP2 UVRA, Metabolic Activation: MOUSE, LIVER, S-9, AROCLOR 1254, Method: STANDARD PLATE) was “inactive; negative”, the mutagenic call (Test System: E. COLI, Strain/Indicator: WP2 UVRA, Metabolic Activation: MOUSE, LIVER, S-9, Method: STANDARD PLATE) was “inactive; negative” and the mutagenic call (Test System: E. COLI, Strain/Indicator: WP2 UVRA, Metabolic Activation: NONE, Method: STANDARD PLATE) was “inactive; negative”. For the same compound, the mutagenic call (Test System: E. COLI, Strain/Indicator: WP2 UVRA, Metabolic Activation: RAT, LIVER, S-9, AROCLOR 1254, Method: STANDARD PLATE) was “inactive; negative”, the mutagenic call (Test System: E. COLI, Strain/Indicator: WP2 UVRA, Metabolic Activation: RAT, LIVER, S-9, Method: STANDARD PLATE) was “inactive; negative” and the mutagenic call (Test System: MOUSE LYMPHOMA, Strain/Indicator: L5178Y (TK+/TK-), Metabolic Activation: NONE, Method: SUSPENSION/PLATE) was “active; positive”. For the same compound, the mutagenic call (Test System: MOUSE LYMPHOMA, Strain/Indicator: L5178Y (TK+/TK-), Metabolic Activation: RAT, LIVER, S-9, AROCLOR 1254, Method: SUSPENSION/PLATE) was “active; positive” and the mutagenic call (Test System: MOUSE LYMPHOMA, Strain/Indicator: L5178Y (TK+/TK-), Metabolic Activation: RAT, LIVER, S-9, Method: SUSPENSION/PLATE) was “inactive; negative”.
With Nc1ccc(N)c2c1C(=O)c1cccc([N+](=O)[O-])c1C2=O the mutagenic call [1] was “active; positive”, the mutagenic call [2] was “active; positive” and the mutagenic call [11] was “inactive; negative”. The mutagenic call [3] was “inactive; negative”, the mutagenic call [4] was “inactive; negative” and the mutagenic call [5] was “inactive; negative”. The mutagenic call [6] was “active; positive”, the mutagenic call [7] was “inactive; negative” and the mutagenic call [8] was “active; positive”. For the same compound, the mutagenic call (Test System: AMES SALMONELLA TYPHIMURIUM, Strain/Indicator: TA1538, Metabolic Activation: RAT, LIVER, S-9, AROCLOR 1254, Method: STANDARD PLATE) was “active; positive” and the mutagenic call [9] was “inactive; negative”.
For C/C(O)=C(\N=O)C(=O)N(c1ccccc1)N(C)N=O, the mutagenic call (Test System: AMES SALMONELLA TYPHIMURIUM, Strain/Indicator: TA98, Metabolic Activation: NONE, Method: PREINCUBATION) was “active; positive”, the mutagenic call (Test System: AMES SALMONELLA TYPHIMURIUM, Strain/Indicator: TA98, Method: PREINCUBATION) was “active; positive” and the mutagenic call (Test System: AMES SALMONELLA TYPHIMURIUM, Strain/Indicator: TA100, Metabolic Activation: NONE, Method: PREINCUBATION) was “active; positive”. The mutagenic call (Test System: AMES SALMONELLA TYPHIMURIUM, Strain/Indicator: TA100, Method: PREINCUBATION) was “active; positive”.
In the case of O=S(=O)(c1cc(Cl)cc(Cl)c1O)c1cc(Cl)cc(Cl)c1O, the mutagenic call (Test System: AMES SALMONELLA TYPHIMURIUM, Strain/Indicator: TA97, Metabolic Activation: NONE, Method: STANDARD PLATE) is reported as “inactive; negative”, the mutagenic call (Test System: AMES SALMONELLA TYPHIMURIUM, Strain/Indicator: TA97, Metabolic Activation: RAT, LIVER, S-9, AROCLOR 1254, Method: STANDARD PLATE) is reported as “inactive; negative” and the mutagenic call [1] is reported as “inactive; negative”. For the same compound, the mutagenic call [2] was “inactive; negative”, the mutagenic call [11] was “inactive; negative” and the mutagenic call [3] was “inactive; negative”. The mutagenic call (Test System: AMES SALMONELLA TYPHIMURIUM, Strain/Indicator: TA102, Metabolic Activation: NONE, Method: STANDARD PLATE) was “inactive; negative” and the mutagenic call (Test System: AMES SALMONELLA TYPHIMURIUM, Strain/Indicator: TA102, Metabolic Activation: RAT, LIVER, S-9, AROCLOR 1254, Method: STANDARD PLATE) was “inactive; negative”.
O[C@H]1C=Cc2ccc3c(sc4ccccc43)c2[C@@H]1O was tested, and the mutagenic call [10] was “inactive; negative”.
